Experimental data published in patent publication US8492310B2, “Herbicidal compositions containing benzoylpyrazole compounds” (priority 2008, dated 2013).
Where two headings read alike, the source gives them in different places.

Key:
Assay type in all cases: in vivo
[1] = tested on: barnyardgrass (Echinochloa crus-qalli L.); assay: Foliar treatment pot test, visual growth inhibition rate, barnyardgrass (EC); details: 4.0-5.0 leaf stage, read-out: Growth inhibition rate (%) of EC Measured value
Excerpt: (§1) When the herbicidal activity in a case where two active ingredients are combined, is larger than the simple sum of the respective herbicidal activities of the two active ingredients (the expected activity), it is called a synergistic effect. The activity expected by the combination of two active ingredients can be calculated as follows (Colby S. R., “Weed”, vol. 15, p. 20-22, 1967). E=α+β−(α×β÷100) where
(§2) Upland field soil was put into a 1/1,000,000 hectare pot, and seeds of various plants (barnyardgrass (Echinochloa crus-qalli L.), crabgrass (Digitaria sanguinalis L.), giant foxtail (Setaria faberi Herrm.), velvetleaf (Abutilon theophrasti MEDIC.) and prickly sida (Sida spinosa L.)) were sown. When the respective plants reached predetermined leaf stage, herbicidal compositions in predetermined amounts were diluted with water in an amount corresponding to 300 L/ha and applied for foliar treatment by a small sprayer.
(§3) Further, in accordance with the above Colby's formula, the growth inhibition rate (calculated value) was calculated. In Tables, with respect to the compound Q, Compound Nos. in Table 1 are described, and with respect to other herbicidal compounds, common names are described. Further, in Tables, barnyardgrass is represented by “EC”, crabgrass by “DS”, giant foxtail by “SF”, velvetleaf by “AT”, and prickly sida by “SS”.

[2] = tested on: crabgrass (Digitaria sanguinalis L.); assay: Foliar treatment pot test, visual growth inhibition rate, crabgrass (DS); details: Digitaria sanguinalis, foliar, read-out: Growth inhibition rate (%) of DS Measured value
Excerpt: as §1, §2, §3

[3] = tested on: velvetleaf (Abutilon theophrasti MEDIC.); assay: Foliar treatment pot test, visual growth inhibition rate, velvetleaf (AT); details: Abutilon theophrasti, foliar, read-out: Growth inhibition rate (%) of AT Measured value
Excerpt: as §1, §2, §3

[4] = tested on: prickly sida (Sida spinosa L.); assay: Foliar treatment pot test, visual growth inhibition rate, prickly sida (SS); details: Sida spinosa, foliar, read-out: Growth inhibition rate (%) of SS Measured value; for inhibition at 15 g/ha: 1.5-2.4 leaf stage
Excerpt: as §1, §2, §3

[5] = 480 h, 3.7-4.0 leaf stage, 20 DAT
[6] = 480 h, 4.0-4.2 leaf stage, 20 DAT
[7] = 480 h, 4.5-5.2 leaf stage, 20 DAT
[8] = 480 h, 4.2-4.3 leaf stage, 20 DAT
[9] = 528 h, 3.3-3.8 leaf stage, 22 DAT

CS(=O)(=O)c1ccc(C(=O)C2C(=O)CCCC2=O)c([N+](=O)[O-])c1 [Mesotrione]
inhibition at 15 g/ha ([1]; 504 h, 21 DAT, 15 g/ha): 5% | inhibition at 25 g/ha [2, 5]: 55% | inhibition at 50 g/ha [2, 5]: 83% | inhibition at 12.5 g/ha ([2]; 480 h, 5.1-5.2 leaf stage, 20 DAT, 12.5 g/ha): 80% | inhibition at 25 g/ha [3, 6]: 23% | inhibition at 50 g/ha [3, 6]: 35% | inhibition at 12.5 g/ha ([3]; 480 h, 4.1-4.2 leaf stage, 20 DAT, 12.5 g/ha): 75% | inhibition at 25 g/ha ([3]; 480 h, 4.1-4.2 leaf stage, 20 DAT): 94% | inhibition at 15 g/ha ([3]; 576 h, 3.2-4.1 leaf stage, 24 DAT): 88%

COc1c(Cl)ccc(Cl)c1C(=O)O [Dicamba, dicamba]
inhibition at 200 g/ha ([1]; 336 h, 14 DAT, 200 g/ha): 0% | inhibition at 100 g/ha ([2]; 312 h, 4.4-5.0 leaf stage, 13 DAT): 0% | inhibition at 25 g/ha [2, 7]: 0% | inhibition at 50 g/ha [2, 7]: 0% | inhibition at 100 g/ha [2, 7]: 0% | inhibition at 200 g/ha ([2]; 504 h, 5.0-5.5 leaf stage, 21 DAT, 200 g/ha): 0% | inhibition at 60 g/ha ([2]; 552 h, 4.5-5.3 leaf stage, 23 DAT, 60 g/ha): 55% | inhibition at 120 g/ha ([2]; 552 h, 4.5-5.3 leaf stage, 23 DAT, 120 g/ha): 75% | inhibition at 100 g/ha ([3]; 312 h, 3.3-4.2 leaf stage, 13 DAT): 35% | inhibition at 25 g/ha [3, 8]: 25% | inhibition at 50 g/ha [3, 8]: 35% | inhibition at 100 g/ha [3, 8]: 43% | inhibition at 100 g/ha ([3]; 504 h, 3.5-4.3 leaf stage, 21 DAT): 55% | inhibition at 60 g/ha ([3]; 552 h, 3.0-4.2 leaf stage, 23 DAT): 0% | inhibition at 120 g/ha ([3]; 552 h, 3.0-4.2 leaf stage, 23 DAT, 120 g/ha): 0%

COc1cc(OC)nc(NC(=O)NS(=O)(=O)c2ncccc2C(=O)N(C)C)n1 [Nicosulfuron, nicosulfuron]
inhibition at 5 g/ha ([2]; 336 h, 3.5-4.3 leaf stage, 14 DAT, 5 g/ha): 15% | inhibition at 10 g/ha ([2]; 504 h, 3.5 to 4.3 leaf stage, 21 DAT, 10 g/ha): 30% | inhibition at 20 g/ha ([2]; 504 h, 4.5-5.1 leaf stage, 21 DAT, 20 g/ha): 50% | inhibition at 80 g/ha ([2]; 504 h, 4.5-5.1 leaf stage, 21 DAT, 80 g/ha): 94% | inhibition at 5 g/ha ([3]; 480 h, 3.1-3.4 leaf stage, 20 DAT, 5 g/ha): 10% | inhibition at 7 g/ha ([3]; 504 h, 3.8-4.4 leaf stage, 21 DAT): 30% | inhibition at 40 g/ha ([3]; 504 h, 4.0-4.5 leaf stage, 21 DAT, 40 g/ha): 65% | inhibition at 60 g/ha ([3]; 504 h, 4.0-4.5 leaf stage, 21 DAT): 70% | inhibition at 80 g/ha ([3]; 504 h, 4.0-4.5 leaf stage, 21 DAT, 80 g/ha): 83% | inhibition at 7 g/ha [3, 9]: 45% | inhibition at 15 g/ha [3, 9]: 60% | inhibition at 30 g/ha ([3]; 528 h, 3.3-3.8 leaf stage, 22 DAT, 30 g/ha): 70% | inhibition at 10 g/ha ([3]; 528 h, 4.0-4.4 leaf stage, 22 DAT, 10 g/ha): 40% | inhibition at 15 g/ha ([4]; 480 h, 20 DAT): 45% | inhibition at 15 g/ha ([4]; 504 h, 21 DAT): 45% | inhibition at […] ([4]; 504 h, 2.1 to 3.1 leaf stage, 21 DAT, 2.5 g/ha): 0% | inhibition at 5 g/ha ([4]; 504 h, 2.1 to 3.1 leaf stage, 21 DAT, 5 g/ha): 0% | inhibition at 10 g/ha ([4]; 504 h, 2.1 to 3.1 leaf stage, 21 DAT, 10 g/ha): 10% | inhibition at 20 g/ha ([4]; 504 h, 2.1 to 3.1 leaf stage, 21 DAT, 20 g/ha): 40% | inhibition at 30 g/ha ([4]; 504 h, 2.1 to 3.1 leaf stage, 21 DAT, 30 g/ha): 50% | inhibition at 50 g/ha ([4]; 504 h, 2.1 to 3.1 leaf stage, 21 DAT, 50 g/ha): 70%
